Patent publication US11406624B2, “Pyrazolopyridine compounds and uses thereof” (Incyte Corporation, priority 2017, dated 2022)

biological target: HPK1 (Homo sapiens (Human), UniProt Q92918); test: HPK1 Kinase Binding Assay; conditions: LanthaScreen tracer 222 binding, active HPK1, one hour incubation at 25° C.
Protocol: A stock solution of 1 mM test compound was prepared in DMSO. The compound plate was prepared by 3-fold and 11-point serial dilutions. 0.1 μL of the compound in DMSO was transferred from the compound plate to the white 384 well polystyrene plates. The assay buffer contained 50 mM HEPES, pH 7.5, 0.01% Tween-20, 5 mM MgCl2, 0.01% BSA, and 5 mM DTT. 5 μl of 4 nM active HPK1 (SignalChem M23-11G) prepared in the buffer was added to the plate. The enzyme concentration given was based on the given stock concentration reported by the vender. 5 μl of 18 nM tracer 222 (ThermoFisher PV6121) and 4 nM LanthaScreen Eu-Anti GST antibody (ThermoFisher PV5595) were added. After one hour incubation at 25° C., the plates were read on a PHERAstar FS plate reader (BMG Labtech). Ki values were determined.

Sequence of HPK1 (Q92918 1-346): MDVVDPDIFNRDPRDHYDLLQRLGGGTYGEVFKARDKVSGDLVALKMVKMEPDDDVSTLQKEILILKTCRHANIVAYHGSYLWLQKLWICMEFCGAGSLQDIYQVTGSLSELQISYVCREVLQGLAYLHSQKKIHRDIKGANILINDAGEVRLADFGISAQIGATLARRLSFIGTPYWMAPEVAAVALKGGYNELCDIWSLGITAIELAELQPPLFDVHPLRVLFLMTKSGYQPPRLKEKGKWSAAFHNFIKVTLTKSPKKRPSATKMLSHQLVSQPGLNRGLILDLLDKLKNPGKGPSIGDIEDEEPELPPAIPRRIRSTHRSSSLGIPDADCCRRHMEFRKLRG

| Structure (SMILES) | Ki [µM] |
| --- | --- |
| Cc1c(-c2cc3c(NC(=O)c4ccc(N5CCOCC5)cc4)n[nH]c3cn2)cnn1C [Example 6, N-(5-(1,5-dimethyl-1H-pyrazol-4-yl)-1H-pyrazolo[3,4-c]pyridin-3-yl)-4-morpholinobenzamide] | ≤ 0.1 |
| COCCNc1ccc(C(=O)Nc2n[nH]c3cnc(-c4cnn(C)c4C)cc23)cc1 [Example 12, N-(5-(1,5-dimethyl-1H-pyrazol-4-yl)-1H-pyrazolo[3,4-c]pyridin-3-yl)-4-(2-methoxyethylamino)benzamide] | ≤ 0.1 |
| COc1ccncc1-c1cc2c(C(=O)Nc3ccc(N4CCN(C)CC4)cc3)n[nH]c2cn1 [Example 16, 5-(4-Methoxypyridin-3-yl)-N-(4-(4-methylpiperazin-1-yl)phenyl)-1H-pyrazolo[3,4-c]pyridine-3-carboxamide] | ≤ 0.1 |
| CCCNc1ccc(C(=O)Nc2n[nH]c3cnc(-c4cnn(C)c4C)cc23)cc1 [Example 11, N-(5-(1,5-dimethyl-1H-pyrazol-4-yl)-1H-pyrazolo[3,4-c]pyridin-3-yl)-4-(propylamino)benzamide] | ≤ 0.1 |
| Cc1ccncc1-c1cc2c(NC(=O)c3ccc(N4CCCC(N)C4)cc3)n[nH]c2cn1 (stereo not shown) [Example 5, 4-(3-Aminopiperidin-1-yl)-N-(5-(4-methylpyridin-3-yl)-1H-pyrazolo[3,4-c]pyridin-3-yl)benzamide] | ≤ 0.1 |
| Cc1ccncc1-c1cc2c(NC(=O)c3ccc(N4CCOCC4)cc3)n[nH]c2cn1 [Example 1, N-(5-(4-methylpyridin-3-yl)-1H-pyrazolo[3,4-c]pyridin-3-yl)-4-morpholinobenzamide] | ≤ 0.1 |
| Cc1c(-c2cc3c(NC(=O)c4ccc(N5CCN(C)CC5)cc4)n[nH]c3cn2)cnn1C [Example 7, N-(5-(1,5-dimethyl-1H-pyrazol-4-yl)-1H-pyrazolo[3,4-c]pyridin-3-yl)-4-(4-methylpiperazin-1-yl)benzamide] | ≤ 0.1 |
| CCOC(=O)N1CCN(c2ccc(C(=O)Nc3n[nH]c4cnc(-c5cnn(C)c5C)cc34)cc2)CC1 [Example 8, Ethyl 4-(4-(5-(1,5-dimethyl-1H-pyrazol-4-yl)-1H-pyrazolo[3,4-c]pyridin-3-ylcarbamoyl)phenyl)piperazine-1-carboxylate] | ≤ 0.1 |
| COC1CCN(c2ccc(C(=O)Nc3n[nH]c4cnc(-c5cnccc5C)cc34)cc2)CC1 [Example 4, 4-(4-Methoxypiperidin-1-yl)-N-(5-(4-methylpyridin-3-yl)-1H-pyrazolo[3,4-c]pyridin-3-yl)benzamide] | ≤ 0.1 |
| COC1CCCN(c2ccc(C(=O)Nc3n[nH]c4cnc(-c5cnn(C)c5C)cc34)cc2)C1 (stereo not shown) [Example 10, N-(5-(1,5-dimethyl-1H-pyrazol-4-yl)-1H-pyrazolo[3,4-c]pyridin-3-yl)-4-(3-methoxypiperidin-1-yl)benzamide] | ≤ 0.1 |
| CCOC(=O)N1CCN(c2ccc(C(=O)Nc3n[nH]c4cnc(-c5cnccc5C)cc34)cc2)CC1 [Example 3, Ethyl 4-(4-(5-(4-methylpyridin-3-yl)-1H-pyrazolo[3,4-c]pyridin-3-ylcarbamoyl)phenyl)piperazine-1-carboxylate] | ≤ 0.1 |
| COc1ccncc1-c1cc2c(NC(=O)c3ccc(N4CCN(C)CC4)cc3)n[nH]c2cn1 [Example 14, N-(5-(4-methoxypyridin-3-yl)-1H-pyrazolo[3,4-c]pyridin-3-yl)-4-(4-methylpiperazin-1-yl)benzamide] | ≤ 0.1 |
| Cc1c(-c2cc3c(NC(=O)c4ccc(N5CCC(F)(F)C5)cc4)n[nH]c3cn2)cnn1C [Example 13, 4-(3,3-Difluoropyrrolidin-1-yl)-N-(5-(1,5-dimethyl-1H-pyrazol-4-yl)-1H-pyrazolo[3,4-c]pyridin-3-yl)benzamide] | ≤ 0.1 |
| COC1CCN(c2ccc(C(=O)Nc3n[nH]c4cnc(-c5cnn(C)c5C)cc34)cc2)CC1 [Example 9, N-(5-(1,5-dimethyl-1H-pyrazol-4-yl)-1H-pyrazolo[3,4-c]pyridin-3-yl)-4-(4-methoxypiperidin-1-yl)benzamide] | ≤ 0.1 |
| Cc1ccncc1-c1cc2c(NC(=O)c3ccc(N4CCN(C)CC4)cc3)n[nH]c2cn1 [Example 2, 4-(4-Methylpiperazin-1-yl)-N-(5-(4-methylpyridin-3-yl)-1H-pyrazolo[3,4-c]pyridin-3-yl)benzamide] | ≤ 0.1 |
| Cc1ccncc1-c1cc2c(C(=O)Nc3ccc(N4CCN(C)CC4)cc3)n[nH]c2cn1 [Example 15, N-(4-(4-methylpiperazin-1-yl)phenyl)-5-(4-methylpyridin-3-yl)-1H-pyrazolo[3,4-c]pyridine-3-carboxamide] | ≤ 0.1 |
